According to patent publication US10011578B2, “Compounds for stabilizing ryanodine receptors from aberrant levels of calcium release” (Rosalind Franklin University of Medicine and Science, priority 2013, dated 2018):
Entries after “also recorded” stand apart in the source; their conditions may differ.

Key:
RyR [1] = assay: RyR-evoked calcium response in CA1 pyramidal neurons of hippocampal brain slices, acute incubation; assay type: cell-based, mouse; conditions: 3×Tg-AD hippocampal slices, caffeine, 10 μM, 1 hour incubation
Method: 3×Tg-AD, TgCRND8, PS1/APP, and nontransgenic (NonTg) J29/C57BL6 control mice were bred in-house. Adult male and female mice 3-5 months old were used. Animals were cared for and used in accordance with protocols approved by the Rosalind Franklin University of Medicine and Science Animal Care and Use Committee. […] Whole-cell patch-clamp recordings were conducted at room temperature (23° C.) in continuously superfused aCSF (1.5-2.0 mL/min). […] Hippocampal CA1 pyramidal neurons were identified visually via infrared differential interference contrast (IR-DIC) optics, and electrophysiologically by their passive membrane properties and spike frequency accommodation. […] Minianalysis 6.0.7 (Synaptosoft, Fort Lee, N.J.) was used to detect and measure spontaneous excitatory postsynaptic potential (sEPSP) events with a minimal amplitude of 0.2 mV and minimal area of 3 mV*msec.
(§1) Voltage-gated Ca^2+ channel (VGCC) responses were elicited by depolarization via current injected through the patch pipette with the current level adjusted to elicit a train of 8-10 spikes.

RyR [2] = assay: Sub-chronic in vivo treatment of 3×Tg-AD mice, RyR-evoked calcium responses in CA1 neurons; set-up: species or system mouse; conditions: 10 mg/kg ip, 4 weeks, 10 mM caffeine on acute slices
Method: 3×Tg-AD, TgCRND8, PS1/APP, and nontransgenic (NonTg) J29/C57BL6 control mice were bred in-house. Adult male and female mice 3-5 months old were used. Animals were cared for and used in accordance with protocols approved by the Rosalind Franklin University of Medicine and Science Animal Care and Use Committee. Hippocampal brain slices (300 μm) were prepared as previously described (Briggs et al., Neurobiol. Aging, 2013, 34:1632-1643). Mice were anesthetized with halothane, decapitated, and the brain removed into ice-cold sucrose cutting solution (200 mM sucrose, 1.5 mM KCl, 0.5 mM CaCl2, 4.0 mM MgCl2, 1.0 mM KH2PO4, 25 mM NaHCO3, 10 mM Na-ascorbate, and 20 mM dextrose, equilibrated with 95% O2/5% CO2). Horizontal hippocampal slices were prepared in a Camden Instruments vibratome with the chamber filled with ice-cold sucrose cutting solution and then transferred to and maintained in standard artificial cerebrospinal fluid (aCSF; 130 mM NaCl, 2.5 mM KCl, 2.0 mM CaCl2, 1.2 mM MgSO4, 1.25 mM NaH2PO4, 25 mM NaHCO3, and 10 mM dextrose [305-310 mOsm], equilibrated with 95% O2/5% CO2, pH 7.3-7.4) at 32° C. for at least 1 hour before use. […] Membrane potentials were obtained in current-clamp mode, acquired at 10 kHz with a Digidata 1322 A-D converter and Multiclamp 700B amplifier, and recorded and analyzed using pClamp 10.2 (Molecular Devices). […]

[3] = Sub-chronic in vivo treatment of 3×Tg-AD mice, heart weight and body weight; set-up: species or system mouse; conditions: 10 mg/kg ip, 4 weeks
Method: Ca^2+ signaling and electrophysiological properties of CA1 pyramidal neurons were studied in hippocampal brain slices according to the protocols disclosed in Example 1. Briefly, 3×Tg-AD mice were treated with either saline (0.9%), CK013 or CK017 for four weeks (10 mg/kg; ip), and then acute hippocampal brain slice preparations were made for the purposes of performing whole cell patch clamp recordings and 2-photon calcium imaging in CA1 pyramidal neurons. The objective was to determine if our compounds could restore normal RyR-mediated calcium signaling in the AD mice and maintain normal membrane physiology.
Also, passive membrane properties such as resting membrane potential and membrane input resistance were not affected by these compounds. […] Additionally, there were no statistically significant differences in the ratio of heart weight:body weight among the treatment groups (Table 4; p>0.05), nor were there differences in absolute body weights or heart weights among the groups (data not shown; […]).

[4] = molecular target: T1, RyR (RyR2-expressing N2A cell line) (Mus musculus, UniProt E9Q401); assay: RyR-evoked (caffeine) calcium response in N2A cells, 2-photon fura-2 imaging; assay type: cell-based; conditions: for effect on caffeine-stimulated Ca^2+ release compared with dantrolene: 10 μM; for Ca^2+ Inc (Ca^2+ increase over baseline): caffeine-stimulated, compounds tested at 10 μM
T1 construct: tested using a RyR2-expressing N2A cell line; host or cells: N2a (Neuro-2a) cells
T1 sequence (E9Q401 whole entry): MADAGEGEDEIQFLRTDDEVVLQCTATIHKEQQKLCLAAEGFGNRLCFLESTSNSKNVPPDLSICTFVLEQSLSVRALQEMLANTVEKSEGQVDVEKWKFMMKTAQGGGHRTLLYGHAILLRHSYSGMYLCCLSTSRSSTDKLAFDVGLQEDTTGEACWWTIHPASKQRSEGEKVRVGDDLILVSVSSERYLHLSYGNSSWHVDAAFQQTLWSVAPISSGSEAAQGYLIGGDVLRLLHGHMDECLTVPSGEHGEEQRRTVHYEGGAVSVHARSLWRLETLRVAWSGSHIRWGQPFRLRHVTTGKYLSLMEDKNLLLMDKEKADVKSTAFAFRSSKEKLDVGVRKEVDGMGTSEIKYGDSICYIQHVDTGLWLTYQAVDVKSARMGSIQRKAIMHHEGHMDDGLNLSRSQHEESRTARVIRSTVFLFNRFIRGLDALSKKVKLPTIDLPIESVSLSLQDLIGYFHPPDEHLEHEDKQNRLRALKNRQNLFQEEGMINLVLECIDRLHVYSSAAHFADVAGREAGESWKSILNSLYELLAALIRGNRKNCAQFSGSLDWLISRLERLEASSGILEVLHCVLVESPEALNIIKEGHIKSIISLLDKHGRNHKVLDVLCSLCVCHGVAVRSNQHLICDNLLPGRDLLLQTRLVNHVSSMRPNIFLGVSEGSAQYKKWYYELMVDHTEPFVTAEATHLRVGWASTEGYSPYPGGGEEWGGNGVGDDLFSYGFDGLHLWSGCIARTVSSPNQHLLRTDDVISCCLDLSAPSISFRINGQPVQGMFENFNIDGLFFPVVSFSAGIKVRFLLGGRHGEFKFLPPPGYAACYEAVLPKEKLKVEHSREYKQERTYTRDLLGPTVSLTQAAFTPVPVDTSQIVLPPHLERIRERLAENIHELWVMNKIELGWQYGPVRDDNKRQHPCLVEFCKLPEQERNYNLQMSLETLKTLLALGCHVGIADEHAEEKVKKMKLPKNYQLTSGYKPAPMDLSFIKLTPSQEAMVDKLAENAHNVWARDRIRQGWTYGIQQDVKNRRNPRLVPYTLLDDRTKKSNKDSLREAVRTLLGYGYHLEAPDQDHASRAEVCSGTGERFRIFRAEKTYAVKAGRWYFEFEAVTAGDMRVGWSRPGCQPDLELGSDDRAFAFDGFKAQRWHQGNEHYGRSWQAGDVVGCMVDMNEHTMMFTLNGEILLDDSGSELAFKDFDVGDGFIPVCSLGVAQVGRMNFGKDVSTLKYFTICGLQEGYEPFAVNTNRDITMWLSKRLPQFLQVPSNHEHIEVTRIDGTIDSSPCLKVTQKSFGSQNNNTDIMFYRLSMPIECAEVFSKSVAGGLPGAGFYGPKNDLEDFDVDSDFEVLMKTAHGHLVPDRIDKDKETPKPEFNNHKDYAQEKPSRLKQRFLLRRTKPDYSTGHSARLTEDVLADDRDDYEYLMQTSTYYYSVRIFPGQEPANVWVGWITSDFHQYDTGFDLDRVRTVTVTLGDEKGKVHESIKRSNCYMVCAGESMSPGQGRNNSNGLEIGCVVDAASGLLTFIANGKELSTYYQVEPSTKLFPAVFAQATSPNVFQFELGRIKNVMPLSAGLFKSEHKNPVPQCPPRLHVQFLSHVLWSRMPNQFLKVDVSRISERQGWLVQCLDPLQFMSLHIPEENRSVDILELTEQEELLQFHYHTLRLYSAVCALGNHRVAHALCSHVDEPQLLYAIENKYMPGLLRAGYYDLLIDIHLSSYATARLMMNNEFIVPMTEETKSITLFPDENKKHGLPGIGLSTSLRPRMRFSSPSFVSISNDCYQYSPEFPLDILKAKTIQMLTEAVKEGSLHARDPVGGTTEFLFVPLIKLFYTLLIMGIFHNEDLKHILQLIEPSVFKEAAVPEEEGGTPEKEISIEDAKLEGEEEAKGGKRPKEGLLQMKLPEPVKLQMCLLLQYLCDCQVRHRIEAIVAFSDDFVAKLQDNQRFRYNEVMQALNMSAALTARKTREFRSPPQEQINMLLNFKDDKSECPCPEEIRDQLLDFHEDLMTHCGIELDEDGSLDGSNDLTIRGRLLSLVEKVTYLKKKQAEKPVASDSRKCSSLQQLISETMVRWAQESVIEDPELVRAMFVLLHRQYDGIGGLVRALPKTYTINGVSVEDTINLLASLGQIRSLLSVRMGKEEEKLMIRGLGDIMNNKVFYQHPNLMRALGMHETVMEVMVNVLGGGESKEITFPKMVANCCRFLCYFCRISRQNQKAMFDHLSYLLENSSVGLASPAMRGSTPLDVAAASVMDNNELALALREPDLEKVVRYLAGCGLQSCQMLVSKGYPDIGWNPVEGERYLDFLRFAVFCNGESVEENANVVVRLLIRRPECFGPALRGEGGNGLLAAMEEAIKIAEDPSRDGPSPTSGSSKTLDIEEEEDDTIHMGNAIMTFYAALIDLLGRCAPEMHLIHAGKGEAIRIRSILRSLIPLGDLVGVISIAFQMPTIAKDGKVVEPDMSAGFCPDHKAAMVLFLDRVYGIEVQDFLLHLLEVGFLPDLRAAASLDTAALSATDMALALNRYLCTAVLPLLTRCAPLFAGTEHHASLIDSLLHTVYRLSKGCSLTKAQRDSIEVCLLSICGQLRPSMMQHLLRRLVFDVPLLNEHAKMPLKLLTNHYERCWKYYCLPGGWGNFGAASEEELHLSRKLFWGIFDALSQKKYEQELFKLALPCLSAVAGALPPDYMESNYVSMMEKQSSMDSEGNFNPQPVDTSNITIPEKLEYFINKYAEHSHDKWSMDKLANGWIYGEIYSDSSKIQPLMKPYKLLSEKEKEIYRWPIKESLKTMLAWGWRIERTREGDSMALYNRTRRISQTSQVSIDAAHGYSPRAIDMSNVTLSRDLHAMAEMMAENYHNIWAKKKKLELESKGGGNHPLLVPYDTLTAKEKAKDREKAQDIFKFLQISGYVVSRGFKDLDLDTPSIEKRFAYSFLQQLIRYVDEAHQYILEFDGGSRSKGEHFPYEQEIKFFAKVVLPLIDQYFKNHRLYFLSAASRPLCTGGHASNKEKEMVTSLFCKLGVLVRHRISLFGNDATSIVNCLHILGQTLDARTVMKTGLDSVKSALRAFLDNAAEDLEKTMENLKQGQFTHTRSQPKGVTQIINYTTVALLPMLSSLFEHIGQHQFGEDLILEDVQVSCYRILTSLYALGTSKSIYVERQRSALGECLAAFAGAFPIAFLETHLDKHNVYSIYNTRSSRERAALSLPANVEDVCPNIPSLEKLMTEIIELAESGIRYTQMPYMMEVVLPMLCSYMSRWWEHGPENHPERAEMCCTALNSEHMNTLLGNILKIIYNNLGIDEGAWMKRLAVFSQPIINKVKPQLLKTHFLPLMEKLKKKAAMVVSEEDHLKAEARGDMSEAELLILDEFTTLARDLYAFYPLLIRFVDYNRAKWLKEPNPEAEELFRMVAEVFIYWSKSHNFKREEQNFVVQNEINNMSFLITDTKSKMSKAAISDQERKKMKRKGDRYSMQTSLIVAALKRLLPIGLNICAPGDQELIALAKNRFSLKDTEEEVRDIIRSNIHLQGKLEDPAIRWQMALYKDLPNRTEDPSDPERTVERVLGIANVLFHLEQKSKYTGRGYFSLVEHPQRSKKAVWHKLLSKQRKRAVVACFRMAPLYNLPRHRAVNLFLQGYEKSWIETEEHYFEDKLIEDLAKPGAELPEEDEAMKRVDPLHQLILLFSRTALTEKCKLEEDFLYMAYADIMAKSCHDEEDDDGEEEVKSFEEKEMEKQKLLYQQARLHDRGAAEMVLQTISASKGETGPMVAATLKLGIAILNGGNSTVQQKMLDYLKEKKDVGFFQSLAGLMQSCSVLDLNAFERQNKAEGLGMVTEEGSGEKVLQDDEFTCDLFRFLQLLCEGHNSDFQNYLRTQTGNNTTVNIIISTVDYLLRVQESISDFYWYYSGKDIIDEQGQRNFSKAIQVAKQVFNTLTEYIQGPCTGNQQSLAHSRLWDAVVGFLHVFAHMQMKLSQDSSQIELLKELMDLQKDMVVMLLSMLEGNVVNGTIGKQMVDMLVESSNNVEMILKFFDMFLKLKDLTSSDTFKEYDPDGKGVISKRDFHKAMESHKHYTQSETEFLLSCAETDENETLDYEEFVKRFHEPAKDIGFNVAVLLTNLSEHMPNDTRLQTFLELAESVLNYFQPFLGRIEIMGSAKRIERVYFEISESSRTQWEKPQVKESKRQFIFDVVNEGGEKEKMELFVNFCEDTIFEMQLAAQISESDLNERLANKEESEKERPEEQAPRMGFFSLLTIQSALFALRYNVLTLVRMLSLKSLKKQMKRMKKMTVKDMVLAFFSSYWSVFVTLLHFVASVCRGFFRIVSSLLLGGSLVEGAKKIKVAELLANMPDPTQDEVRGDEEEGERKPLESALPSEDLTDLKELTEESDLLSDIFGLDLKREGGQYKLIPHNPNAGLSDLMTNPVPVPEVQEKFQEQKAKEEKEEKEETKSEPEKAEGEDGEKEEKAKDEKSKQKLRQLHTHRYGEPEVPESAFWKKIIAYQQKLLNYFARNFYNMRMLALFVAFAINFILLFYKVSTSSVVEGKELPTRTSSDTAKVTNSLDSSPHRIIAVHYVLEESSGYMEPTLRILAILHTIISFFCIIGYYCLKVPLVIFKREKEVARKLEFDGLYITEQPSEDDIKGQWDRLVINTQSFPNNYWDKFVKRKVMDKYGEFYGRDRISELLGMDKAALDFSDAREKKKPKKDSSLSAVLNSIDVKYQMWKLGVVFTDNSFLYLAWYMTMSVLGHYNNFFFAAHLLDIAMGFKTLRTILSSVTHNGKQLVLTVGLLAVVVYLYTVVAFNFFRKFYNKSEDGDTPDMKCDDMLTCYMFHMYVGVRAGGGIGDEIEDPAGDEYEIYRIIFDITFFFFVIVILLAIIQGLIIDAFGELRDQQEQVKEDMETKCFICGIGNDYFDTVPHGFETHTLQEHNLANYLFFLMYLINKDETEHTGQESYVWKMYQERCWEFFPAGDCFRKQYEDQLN
Method: All incubations and washes were at 37° C. with 10% CO2.
Glass cover slips with fura 2-AM-filled N2a cells were placed in a submersion chamber on the stage of an upright Olympus BX51 microscope which is coupled to a 2-photon laser imaging system. […] Ca^2+ imaging of individual cells was accomplished using a custom-made video-rate 2-photon imaging system. Laser excitation was provided by 100 fs pulses at 780 nm (80 MHz) from a Ti:sapphire laser (Mai Tai Broadband, Spectra-Physics). The laser beam was scanned by a resonant galvanometer (General Scanning Lumonics), allowing rapid (7.9 kHz) bidirectional scanning in the x-axis, and by a conventional linear galvanometer in the y-axis, to provide a full-frame scan rate of 30 frames/s. The laser beam was focused onto the cells through an Olympus 40× water-immersion objective (numerical aperture 0.8). Emitted fluorescence light was detected by a wide-field photomultiplier (Electron Tubes) to derive a video signal that was captured and analyzed by Video Savant 5.0 software (10 Industries). Further analysis of background-corrected images was performed using MetaMorph software. For clarity, results are expressed as inverse ratios so that increases in [Ca^2+ correspond to increasing ratios. The % change is calculated as [(F0/ΔF)−1]*100 where F0 is the average resting fluorescence at baseline and ΔF is the decrease of fluorescence reflecting Ca^2+ release. Differences between treatment groups were assessed using two-way ANOVA and Scheffe post hoc analysis for significance (p<0.05). Somatic Ca^2+ responses in all cells in the field of view were analyzed (n=8-20), with the nucleus region excluded. All compounds were tested in triplicate.

Log P (Table 1) = assay type: physicochemical
[5] = Brain/plasma ratio, brain levels in vivo; conditions: for Kp: brain and plasma
[6] = Aqueous solubility at pH 7.4; assay type: physicochemical
[7] = system: AD mouse models (3×Tg-AD and PS1/APP); assay: 4-week dantrolene treatment in AD mouse models (3×Tg-AD, APP/PS1): calcium, amyloid, synaptic integrity, RyR2 expression; assay type: in vivo
Method: 3×Tg-AD, TgCRND8, PS1/APP, and nontransgenic (NonTg) J29/C57BL6 control mice were bred in-house. Adult male and female mice 3-5 months old were used. Animals were cared for and used in accordance with protocols approved by the Rosalind Franklin University of Medicine and Science Animal Care and Use Committee. Hippocampal brain slices (300 μm) were prepared as previously described (Briggs et al., Neurobiol. Aging, 2013, 34:1632-1643). Mice were anesthetized with halothane, decapitated, and the brain removed into ice-cold sucrose cutting solution (200 mM sucrose, 1.5 mM KCl, 0.5 mM CaCl2, 4.0 mM MgCl2, 1.0 mM KH2PO4, 25 mM NaHCO3, 10 mM Na-ascorbate, and 20 mM dextrose, equilibrated with 95% O2/5% CO2). Horizontal hippocampal slices were prepared in a Camden Instruments vibratome with the chamber filled with ice-cold sucrose cutting solution and then transferred to and maintained in standard artificial cerebrospinal fluid (aCSF; 130 mM NaCl, 2.5 mM KCl, 2.0 mM CaCl2, 1.2 mM MgSO4, 1.25 mM NaH2PO4, 25 mM NaHCO3, and 10 mM dextrose [305-310 mOsm], equilibrated with 95% O2/5% CO2, pH 7.3-7.4) at 32° C. for at least 1 hour before use. Whole-cell patch-clamp recordings were conducted at room temperature (23° C.) in continuously superfused aCSF (1.5-2.0 mL/min). Patch pipettes (5-7 MO) were filled with intracellular solution (135 mM K-gluconate, 2.0 mM MgCl2, 4.0 mM Na2-ATP, 0.4 mM Na-GTP, 10 mM Na-phosphocreatine, 10 mM HEPES adjusted to pH 7.3 with KOH) plus 50 μM bis-fura-2 hexapotassium (Life Technologies) as fluorescent Ca^2+ sensor. Hippocampal CA1 pyramidal neurons were identified visually via infrared differential interference contrast (IR-DIC) optics, and electrophysiologically by their passive membrane properties and spike frequency accommodation. Membrane potentials were obtained in current-clamp mode, acquired at 10 kHz with a Digidata 1322 A-D converter and Multiclamp 700B amplifier, and recorded and analyzed using pClamp 10.2 (Molecular Devices). Minianalysis 6.0.7 (Synaptosoft, Fort Lee, N.J.) was used to detect and measure spontaneous excitatory postsynaptic potential (sEPSP) events with a minimal amplitude of 0.2 mV and minimal area of 3 mV*msec. See Chakroborty et al., 2012, J. Neurosci. 32(24):8341-53 for further experimental details.
as §1

TG-CRND8 AD mice = assay: Chronic dantrolene in TgCRND8 AD mice, CP13 phospho-tau immunostaining; assay type: in vivo, mouse; conditions: 10 mg/kg IP, 4 weeks
Method: Mice are deeply anesthetized with urethane, the thoracic cavity opened, and cannula inserted into the left ventricle of the heart, and a small hole cut into the right atrium. Ice cold saline (3 mL) and then 4% paraformaldehyde (5 mL), or 4% paraformaldehyde/1% glutaraldehyde are perfused through the circulatory system. Following this, the mice are decapitated with sharp scissors and the brain prepared for staining or microscopy.

[8] = chronic oral treatment (10+ months); cited from earlier work

Row | Structure (SMILES) | effect on caffeine-stimulated Ca^2+ release compared with dantrolene [4] | Ca^2+ Inc (Ca^2+ increase over baseline) [4] [fold] | logP (Log P (Table 1)) | further results
1 | O=C(Cc1ccccc1)N/N=C/c1ccc(-c2ccccc2)o1 [CK013] |  |  |  | RyR-evoked calcium response in AD neurons (RyR [1]): normalized aberrant RyR-evoked calcium signals; also recorded: significantly reduced to within physiological levels; RyR-evoked calcium responses after chronic treatment (RyR [2]): not different from the NonTg control responses; also recorded: not different from the control NonTg saline treated mice; Ratio of heart weight:body weight [3]: 4.06 × 10^−3
2 | O=C(N/N=C/c1ccc(-c2ccc(Cl)cc2)o1)N/N=C/c1ccc(-c2ccc(Cl)cc2)o1 [CK017] |  |  |  | RyR-evoked calcium response in AD neurons (RyR [1]): normalized aberrant RyR-evoked calcium signals; also recorded: significantly reduced to within physiological levels; RyR-evoked calcium responses after chronic treatment (RyR [2]): not different from the NonTg control responses; also recorded: not different from the control NonTg saline treated mice; Ratio of heart weight:body weight [3]: 3.6 × 10^−3
3 | O=C1CN(/N=C/c2ccc(-c3ccccc3)o2)C(=O)N1 [RD05] | block calcium release to a greater degree than dantrolene; also recorded: comparable or superior effects on Ca^2+ release | 1.43 | 1.8 | CNS penetration compared with dantrolene [5]: markedly improved; brain levels relative to those of dantrolene [5]: > 50 times; Kp [5]: 0.5; solubility compared with dantrolene [6]: markedly improved solubility
4 | CC(=O)N/N=C/c1ccc(-c2cccc([N+](=O)[O-])c2)o1 [RD09] | block calcium release to a greater degree than dantrolene | 1.06 | 2.5 | 
5 | CN1CCN(C(=O)N/N=C/c2ccc(-c3ccc([N+](=O)[O-])cc3Cl)o2)CC1 [RD10] |  | 4.25 | 3.4 | 
6 | O=C(N/N=C/c1ccc(-c2cccc([N+](=O)[O-])c2)o1)c1ccccn1 [RD11] | block calcium release to a greater degree than dantrolene | 1.38 | 3 | 
7 | Cc1c(-c2ccc(/C=N/NC(N)=O)o2)ccc([N+](=O)[O-])c1C [RD14] | comparable to dantrolene's effect; also recorded: comparable or superior effects on Ca^2+ release | 2.38 | 3.2 | CNS penetration compared with dantrolene [5]: markedly improved; Kp [5]: 1.6; solubility compared with dantrolene [6]: markedly improved solubility
8 | O=C(N/N=C/c1ccc(-c2ccc([N+](=O)[O-])cc2Cl)o1)Nc1ccccc1 [RD54] |  | >6 | 5.1 | 
9 | O=C(N/N=C/c1ccc(-c2ccc(Br)cc2)o1)c1ccc([N+](=O)[O-])cc1 [RD77] |  | >6 | 5 | 
10 | O=C(N/N=C/c1ccc(-c2ccc([N+](=O)[O-])cc2)o1)c1ccc(Cl)cc1Cl [RD83] |  | >6 | 5.5 | 
11 | O=C(N/N=C/c1ccc(-c2cccc(Cl)c2Cl)o1)c1ccccn1 [RD91] |  | >6 | 4.4 | 
12 | O=C1CN(/N=C/c2ccc(-c3ccc([N+](=O)[O-])cc3)o2)C(O)=N1 [dantrolene, 1-{[5-(4-nitrophenyl)-2-furyl]methylideneamino} imidazolidine-2,4-dione] |  | 1.96 |  | reduction of the evoked RyR-calcium response ([4]; caffeine (10 mM), pre-incubated 30 minutes): over 60%; soluble and insoluble Aβ deposition ([7]; 3×Tg-AD and PS1/APP, 4-week treatment, 5-10 mg/kg): significantly reduced; synaptic integrity (synaptophysin/PSD-95 colocalization), synaptic transmission properties ([7]; AD mice, 4-week treatment): restored synaptic transmission properties and synaptic integrity; ER calcium responses (soma, dendrites, dendritic spines) ([7]; AD mice, 4-week treatment, 5-10 mg/kg): returned the exaggerated ER-Ca^2+ release in dendritic spines to NonTg levels; also recorded: normalizes this calcium response; RyR2 mRNA expression levels, hippocampus ([7]; AD-Tg mice, 10 mg/kg, 4 weeks): normalized expression levels of RyR2; reduction of beta amyloid levels (4G8 immunostaining) ([7]; hippocampus and cortex, 4-week treatment): 45%; phospho-tau (CP13) staining, dentate gyrus (TG-CRND8 AD mice): reduces phosphorylated tau; also recorded: significantly reduced; amyloid pathology [8]: increase amyloid pathology
